# From patent US9670209B2 (ACADIA Pharmaceuticals Inc., priority 2013, dated 2017)
# Marks after values point to notes of the source that are not given here.
# Key:
# tear secretion = assay: Tear secretion (phenol red thread) in mice; format: in vivo, balb/c mice; details: for Effects on tear secretion compared to Comparative Compound 2: other studies using the same method (Table 2), statistically significant compared to vehicle
# Experimental: The tear distance, in mm, is recorded. The mice were not anesthetized or otherwise sedated. […] Data are analyzed by repeated measures ANOVA with post-hoc Bonferroni comparisons to vehicle. […] Further details can be seen in FIG. 2.
# [1] = biological target: human M1 muscarinic acetylcholine receptor (Homo sapiens (Human), UniProt P11229); assay: R-SAT (Receptor Selection and Amplification) assay, M1; format: cell-based; details: for M1 PEC50 AVG: NIH-3T3 cells; for Emax: read-out: M1 EFF % AVG
# Experimental: (§1) Briefly, NIH-3T3 cells were grown in 96-well tissue culture plates to 70% to 80% confluence. Cells were transfected with plasmid DNAs using Superfect Reagent (QIAGEN, Valencia, Calif.) as per the manufacturer's protocols. […] Cells were then grown in a humidified atmosphere with 5% ambient CO2 for 4 to 6 days. Media were then removed from the plates, and beta-galactosidase activity was measured by the addition of o-nitrophenyl-D-galactopyranoside (in phosphate-buffered saline with 5% NP-40 detergent). […] All data represent the mean of three wells and were analyzed using the computer program Excel Fit, and EC50 determinations were made using least-squares fit analysis with GraphPad Software Inc. (San Diego, Calif.) software.
# [2] = biological target: human M3 muscarinic acetylcholine receptor (Homo sapiens (Human), UniProt P20309); assay: R-SAT (Receptor Selection and Amplification) assay, M3; format: cell-based; details: for M3 PEC50 AVG: NIH-3T3 cells; for Emax: read-out: M3 EFF % AVG
# Experimental: as §1
# [3] = biological target: human M2 muscarinic acetylcholine receptor (Homo sapiens (Human), UniProt P08172); assay: R-SAT (Receptor Selection and Amplification) assay, M2; format: cell-based; details: for M2 PEC50 AVG: NIH-3T3 cells; for Emax: read-out: M2 EFF % AVG
# Experimental: as §1
# M1 muscarinic receptor = M1 muscarinic receptor (Homo sapiens (Human), UniProt P11229); assay: M1 GTPγS binding assay; format: biochemical; details: for Emax: read-out: M1 GTPγS EFF % AVG;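 for Emax: efficacy relative to carbachol as 100%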
# [4] = Ocular pharmacokinetic evaluation in rabbits; format: in vivo, New Zealand White rabbits
# Experimental: The experimental animals were normotensive male New Zealand White rabbits. A single drop (35 μl) of a compound, (302s), at a concentration of 0.126% (corrected for oxalate salt weight) was administered to each eye by pipette. At 0.25, 0.5, 1, 2, 4, 8, and 24 hours, plasma, aqueous humor, vitreous humor, cornea, iris-ciliary body, retina, and choroid were collected (2 rabbits/timepoint, or 4 eyes/timepoint). Approximately 0.5 ml of blood was collected and placed in EDTA tubes. Blood samples were kept on ice during the duration of sample collection, and centrifuged to harvest plasma. Animals were euthanized and ocular tissues were collected and placed in vials and kept on dry ice for the duration of the collections. All ocular tissue and plasma samples were stored at or below −60° C. until bioanalysis. […] The plasma concentration at most timepoints was >100-fold lower than the compound concentration in target ocular tissues (iris/ciliary body, cornea, retina). The concentration of compound 302s in the target ocular tissues remained at active levels up to at least 24 h. Abbreviations used in FIG. 3 have the following meanings AH (Aqueous Humor), VH (Vitreous Humor) ICB (Iris Ciliary Body), CenP Retina (Center Punch Retina), Per Retina (Peripheral Retina) CenP Choroid (Center Punch Choroid), and Per Choroid (Peripheral Choroid)
# [5] = first study of Table 2, 1 hr post-dosing, 5 μl drop of 0.1% to each eye
# [6] = second study of Table 2, 1 hr post-dosing, 5 μl drop of 0.1% to each eye
# [7] = second study of Table 2, 3 hr post-dosing, 5 μl drop of 0.1% to each eye
# [8] = third study (pilocarpine 24-hour study), 3 hr post-dosing, 0.1% 5 μl drop, Pilocarpine 0.2% 20 μl drop
# [9] = third study (pilocarpine 24-hour study), 6 hr post-dosing, 0.1% 5 μl drop, Pilocarpine 0.2% 20 μl drop
# [10] = third study (pilocarpine 24-hour study), 24 hr post-dosing, 0.1% 5 μl drop, Pilocarpine 0.2% 20 μl drop
# [11] = percent efficacy vs carbachol = 100 percent
# [12] = R-SAT, percent efficacy vs carbachol = 100 percent
# [13] = pilocarpine 24-hour study, 3 and 6 hours post-dosing
# human M1 muscarinic acetylcholine receptor, sequence (P11229 whole entry): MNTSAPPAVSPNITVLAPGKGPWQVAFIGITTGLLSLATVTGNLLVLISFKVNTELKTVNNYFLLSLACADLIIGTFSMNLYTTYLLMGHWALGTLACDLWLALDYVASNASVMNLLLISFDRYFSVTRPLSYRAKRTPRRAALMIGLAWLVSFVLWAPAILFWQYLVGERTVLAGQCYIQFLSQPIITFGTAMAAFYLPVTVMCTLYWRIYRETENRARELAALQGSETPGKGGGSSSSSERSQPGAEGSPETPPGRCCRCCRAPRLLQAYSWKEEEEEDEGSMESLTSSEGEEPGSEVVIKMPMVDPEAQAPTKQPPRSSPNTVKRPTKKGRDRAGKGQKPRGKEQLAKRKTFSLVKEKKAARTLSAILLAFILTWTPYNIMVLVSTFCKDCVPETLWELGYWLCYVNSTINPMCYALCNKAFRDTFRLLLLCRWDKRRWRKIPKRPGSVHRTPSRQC
# M1 muscarinic receptor, sequence (P11229 whole entry): as above
# human M2 muscarinic acetylcholine receptor, sequence (P08172 whole entry): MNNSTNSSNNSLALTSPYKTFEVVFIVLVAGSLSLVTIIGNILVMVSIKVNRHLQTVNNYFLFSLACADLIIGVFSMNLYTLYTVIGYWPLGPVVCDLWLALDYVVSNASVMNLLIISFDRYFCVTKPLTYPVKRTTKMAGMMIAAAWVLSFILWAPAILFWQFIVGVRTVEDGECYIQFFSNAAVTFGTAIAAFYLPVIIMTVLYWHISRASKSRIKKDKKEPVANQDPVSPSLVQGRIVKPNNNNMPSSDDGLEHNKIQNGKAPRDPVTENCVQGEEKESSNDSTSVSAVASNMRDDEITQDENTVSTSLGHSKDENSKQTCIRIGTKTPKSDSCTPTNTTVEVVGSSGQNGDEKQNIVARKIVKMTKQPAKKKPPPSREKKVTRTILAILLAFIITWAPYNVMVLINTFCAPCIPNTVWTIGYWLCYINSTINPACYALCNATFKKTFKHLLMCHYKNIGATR
# human M3 muscarinic acetylcholine receptor, sequence (P20309 whole entry): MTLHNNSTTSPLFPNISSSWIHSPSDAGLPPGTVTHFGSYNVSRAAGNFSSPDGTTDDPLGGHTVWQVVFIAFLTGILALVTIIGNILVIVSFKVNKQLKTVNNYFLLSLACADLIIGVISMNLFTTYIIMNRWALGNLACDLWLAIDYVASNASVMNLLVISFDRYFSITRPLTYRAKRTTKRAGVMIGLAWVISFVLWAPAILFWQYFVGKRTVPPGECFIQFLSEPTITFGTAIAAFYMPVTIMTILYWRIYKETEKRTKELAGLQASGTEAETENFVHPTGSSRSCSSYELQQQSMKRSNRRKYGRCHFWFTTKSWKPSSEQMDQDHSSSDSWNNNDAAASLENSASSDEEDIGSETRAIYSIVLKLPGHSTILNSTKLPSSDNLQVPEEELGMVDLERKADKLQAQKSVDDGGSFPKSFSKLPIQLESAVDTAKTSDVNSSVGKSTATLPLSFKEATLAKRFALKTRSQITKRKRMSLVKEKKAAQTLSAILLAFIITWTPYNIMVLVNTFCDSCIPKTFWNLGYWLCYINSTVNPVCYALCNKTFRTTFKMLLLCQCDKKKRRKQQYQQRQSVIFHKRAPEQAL
SMILES,Tear secretion (tear secretion; [5]) [% *],Tear secretion (tear secretion; [6]),Tear secretion (tear secretion; [7]),Tear secretion (tear secretion; [8]),Tear secretion (tear secretion; [9]),Tear secretion (tear secretion; [10]),M1 PEC50 AVG [1],M3 PEC50 AVG ([2]; R-SAT),M2 PEC50 AVG ([3]; R-SAT),M1 GTPγS PEC50 AVG (M1 muscarinic receptor; GTPγS binding),Effects on tear secretion compared to Comparative Compound 2 (tear secretion),"Emax [1, 11] [%]",Emax [2] [%],Emax [3] [%],EC50 (M1 muscarinic receptor) [nM],Emax (M1 muscarinic receptor) [%],Tear secretion compared to vehicle (tear secretion; [13]),also measured
"CC(C)(C)OC(=O)N1C2CC[C@H]1C[C@@H](O)C2 [Comparative compound 2, reference compound]",149,113%,123%,134%,110%,98%,9.0,7.1,7.1,7.9,,,,,,,,"Effect on tear secretion compared to vehicle (tear secretion; pilocarpine 24-hour study): not significantly different from vehicle; M1 EFF % AVG [1, 11]: 126%; M3 EFF % AVG [2, 12]: 30%; M2 EFF % AVG [3, 12]: 52%; M1 GTPγS EFF % AVG (M1 muscarinic receptor; GTPγS binding, percent efficacy vs carbachol = 100 percent): 32%"
"C=CCO[C@H]1C[C@H]2CC[C@@H](C1)N2C[C@@H](C)Cn1ncc2ccccc21 [Compound 305, 1-((R)-3-((1R,3R,5S)-3-(Allyloxy)-8-azabicyclo[3.2.1]octan-8-yl)-2-methylpropyl)-1H-indazole]",163,,,,,,8.1,,6.9,,greater than that of Comparative Compound 2,115,4,107,79.4,70,,
"C[C@H](CN1[C@@H]2CC[C@H]1C[C@@H](OCC1CC1)C2)Cn1ncc2ccccc21 [Compound 302S, 1-((R)-3-((1R,3R,5S)-3-(cyclopropylmethoxy)-8-azabicyclo[3.2.1]octan-8-yl)-2-methylpropyl)-1H-indazole]",156,157% *,155% *,152% *,151% *,120% †,8.9,6.8,7.6,8.5,,111,12,153,,98,statistically significant improved tear secretion,"Tear secretion compared to vehicle (tear secretion; pilocarpine 24-hour study, 24 hours post-dosing): trend toward significance; Enhancement of tear secretion compared to pilocarpine (tear secretion; pilocarpine 24-hour study, all time points): exceeded the effect of pilocarpine at all time points; Kp ([4]; male, New Zealand White, rabbit, retina (against plasma), topical, 35 μl of 0.126% per eye, most timepoints, iris/ciliary body, cornea, retina, read-out: Plasma concentration lower than concentration in target ocular tissues): > 100; Tmax ([4]; male, New Zealand White, rabbit, topical, 35 μl of 0.126% per eye, all tissues, single 35 μl drop of 0.126% to each eye): 15 min; Cmax ([4]; male, New Zealand White, rabbit, topical, 35 μl of 0.126% per eye, plasma, single 35 μl drop of 0.126% to each eye, read-out: Maximal plasma concentration (Cmax)): 6.4 ng/g; Time the concentration in the target ocular tissues remained at active levels ([4]; target ocular tissues, single topical drop): at least 24 h"
"CC[C@@H]1C(=O)OC[C@@H]1Cc1cncn1C [Pilocarpine, reference compound]",,,,142% *,136% *,113%,,,,,,,,,,,statistically significant improved tear secretion,
"COCC[C@H]1C[C@H]2CC[C@@H](C1)N2C[C@@H](C)Cn1ncc2ccccc21 [Compound 303S, 1-((R)-3-((1R,3R,5S)-3-(2-Methoxyethyl)-8-azabicyclo[3.2.1]octan-8-yl)-2-methylpropyl)-1H-indazole]",,131%,134% *,,,,8.4,,7.1,,greater than that of Comparative Compound 2,121,8,102,63.1,67,,
"COC/C=C1\C[C@H]2CC[C@@H](C1)N2C[C@@H](C)Cn1ncc2ccccc21 [Compound 320s, 1-((R)-3-((1R,3R,58)-3-(2-methoxyethylidene)-8-azabicyclo[3.2.1]octan-8-yl)-2-methylpropyl)-1H-indazole]",,,,,,,8.2,,7.2,,,109,8,90,158,60,,
